Experimental data: patent US8518957B2, “Methanocarba adenosine derivatives, pharmaceutical compositions, and method of reducing intraocular pressure” (The United States of America, as represented by the …, priority 2009, dated 2013)
Where two headings read alike, the source gives them in different places.

Key:
human A1 AR = target: T1, human A1 AR (Homo sapiens, UniProt P30542); assay: Radioligand binding at human A1 AR ([3H]NECA, membranes of CHO cells); details: for Ki: Example 7, agonist radioligand [3H]45, read-out: AR Affinity Ki, nM, A1
T1 construct: expressed in transfected cells
T1 sequence (P30542 1-326): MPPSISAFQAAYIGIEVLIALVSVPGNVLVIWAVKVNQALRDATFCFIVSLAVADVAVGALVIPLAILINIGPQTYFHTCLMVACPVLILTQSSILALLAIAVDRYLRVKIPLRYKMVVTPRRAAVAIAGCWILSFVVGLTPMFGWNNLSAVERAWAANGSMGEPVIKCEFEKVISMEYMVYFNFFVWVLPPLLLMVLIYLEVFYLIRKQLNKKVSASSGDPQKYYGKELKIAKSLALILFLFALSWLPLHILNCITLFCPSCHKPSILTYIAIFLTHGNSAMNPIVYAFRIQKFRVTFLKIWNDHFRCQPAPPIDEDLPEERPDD
Protocol: (§1) [^3H](2-[p-(2-Carboxyethyl)phenyl-ethylamino]-5′-N-ethylcarboxamido-adenosine) (37, [^3H]CGS21680, 40.5 Ci/mmol) and [^125I]N^6-(4-amino-3-iodobenzyl)adenosine-5′-N-methyluronamide (38, [^125I]I-AB-MECA, 2200 Ci/mmol) were purchased from Perkin-Elmer Life and Analytical Science (Boston, Mass.). Test compounds were prepared as 5 mM stock solutions in DMSO and stored frozen at −20° C.
(§2) CHO cells stably expressing the recombinant hA1 and hA3Rs, and HEK-293 cells stably expressing the hA2AAR were cultured in Dulbecco's modified Eagle medium (DMEM) and F12 (1:1) supplemented with 10% fetal bovine serum, 100 units/mL penicillin, 100 μg/mL streptomycin, and […] glutamine. In addition, 800 μg/mL geneticin was added to the A2A media, while 500 μg/mL hygromycin was added to the A1 and A3 media. After harvesting, cells were homogenized and suspended in PBS. Cells were then centrifuged at 240 g for 5 min, and the pellet was resuspended in 50 mM Tris-HCl buffer (pH 7.5) containing 10 mM MgCl2. The suspension was homogenized and was then ultra-centrifuged at 14,330 g for 30 min at 4° C. The resultant pellets were resuspended in Tris buffer, incubated with adenosine deaminase (3 units/mL) for 30 min at 37° C. The suspension was homogenized with an electric homogenizer for 10 sec, pipetted into 1 mL vials and then stored at −80° C. until the binding experiments were conducted. The protein concentration was measured using the BCA Protein Assay Kit from Pierce Biotechnology, Inc. (Rockford, Ill.).
(§3) Into each tube in the binding assay was added 50 μL of increasing concentrations of the test ligand in Tris-HCl buffer (50 mM, pH 7.5) containing 10 mM MgCl2, 50 μl, of the appropriate agonist radioligand, and finally 100 μL of membrane suspension. For the A1AR (22 μg of protein/tube) the radioligand used was [^3H]36 (final concentration of 3.5 nM). For the A2AAR (20 μg/tube) the radioligand used was [^3H]37 (10 nM). For the A3AR (21 μg/tube) the radioligand used was [^125I]38 (0.34 nM). Nonspecific binding was determined using a final concentration of 10 μM unlabeled 36 diluted with the buffer. The mixtures were incubated at 25° C. for 60 min in a shaking water bath. Binding reactions were terminated by filtration through Brandel GF/B filters under a reduced pressure using a M-24 cell harvester (Brandel, Gaithersburg, Md.). Filters were washed three times with 3 mL of 50 mM ice-cold Tris-HCl buffer (pH 7.5). Filters for A1 and A2AAR binding were placed in scintillation vials containing 5 mL of Hydrofluor scintillation buffer and counted using a Perkin Elmer Liquid Scintillation Analyzer (Tri-Carb 2810TR). Filters for A3AR binding were counted using a Packard Cobra II γ-counter. The Ki values were determined using GraphPad Prism for all assays.
(§4) [^3H](2-[p-(2-carboxyethyl)phenyl-ethylamino]-5′-N-ethylcarboxamido-adenosine) ([^3H]CGS21680, 40.5 Ci/mmol) and [^125I]N^6-(4-amino-3-iodobenzyl)adenosine-5′-N-methyluronamide ([^125I]I-AB-MECA, 2200 Ci/mmol) were purchased from PerkinElmer. Test compounds were prepared as 5-mM stock solutions in DMSO and stored frozen at −20° C.
(§5) Chinese hamster ovary (CHO) cells were generated by stably expressing the recombinant hA1 and hA3 and human embryonic kidney (HEK) 293 cells stably expressing the hA2AAR in DMEM and F12 (1:1) supplemented with 10% fetal bovine serum, 100 units/mL penicillin, 100 μg/mL streptomycin, and 2 μmol/mL glutamine. 800 μg/mL Geneticin were added to the A2A media and 500 μg/mL hygromycin to the A1 and A3 media. After harvesting the cells, they were homogenized with an electric homogenizer for 10 sec, pipetted them into 1-mL vials, and then stored them at −80° C. until the binding experiments were conducted. The protein concentration was measured with a BCA Protein Assay Kit from Pierce Biotechnology (Rockford, Ill.). […]

hA2AAR = target: T2, hA2AAR (Homo sapiens, UniProt P29274); assay: Radioligand binding at human A2A AR ([3H]CGS21680, membranes of HEK-293 cells); details: for Ki: Example 7, agonist radioligand [3H]46, HEK293, read-out: AR Affinity Ki, nM, A2A
T2 construct: expressed in transfected cells
T2 sequence (P29274 whole entry): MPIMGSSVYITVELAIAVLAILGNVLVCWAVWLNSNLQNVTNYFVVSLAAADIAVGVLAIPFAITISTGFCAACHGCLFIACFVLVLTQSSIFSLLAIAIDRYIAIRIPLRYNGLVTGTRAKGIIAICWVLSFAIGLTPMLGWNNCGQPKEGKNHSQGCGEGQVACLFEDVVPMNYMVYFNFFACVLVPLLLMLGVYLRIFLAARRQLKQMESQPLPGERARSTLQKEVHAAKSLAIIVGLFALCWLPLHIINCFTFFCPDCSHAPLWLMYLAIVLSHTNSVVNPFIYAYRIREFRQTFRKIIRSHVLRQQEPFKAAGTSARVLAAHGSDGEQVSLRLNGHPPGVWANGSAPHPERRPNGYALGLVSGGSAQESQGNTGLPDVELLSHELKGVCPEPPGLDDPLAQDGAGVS
Protocol: as §1, §2, §3, §4, §5

human A3AR = target: T3, human A3AR (Homo sapiens, UniProt P0DMS8); assay: Radioligand binding at human A3 AR ([125I]I-AB-MECA, membranes of CHO cells)
T3 construct: expressed in transfected cells
T3 sequence (P0DMS8 1-318): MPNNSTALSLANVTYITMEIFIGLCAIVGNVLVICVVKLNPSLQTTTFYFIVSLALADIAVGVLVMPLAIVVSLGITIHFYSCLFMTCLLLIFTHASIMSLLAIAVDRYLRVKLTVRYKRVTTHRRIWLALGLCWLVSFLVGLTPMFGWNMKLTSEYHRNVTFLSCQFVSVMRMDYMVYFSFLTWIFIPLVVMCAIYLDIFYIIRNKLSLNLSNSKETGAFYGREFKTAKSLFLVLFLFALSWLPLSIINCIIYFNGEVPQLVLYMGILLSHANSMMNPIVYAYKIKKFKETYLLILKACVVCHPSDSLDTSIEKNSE
Protocol: Test compounds were prepared as 5 mM stock solutions in DMSO and stored frozen at −20° C.
as §2
as §3, with “For the A1AR (22 μg of protein/tube) the radioligand used was [^3H]36 (final concentration of 3.5 nM).” left out, “For the A3AR (21 μg/tube) the radioligand used was [^125I]38 (0.34 nM).” left out, “Filters for A1 and A2AAR binding were placed in scintillation vials containing 5 mL of Hydrofluor scintillation buffer and counted using a Perkin Elmer Liquid Scintillation Analyzer (Tri-Carb 2810TR).” left out
Test compounds were prepared as 5-mM stock solutions in DMSO and stored frozen at −20° C.
Chinese hamster ovary (CHO) cells were generated by stably expressing the recombinant hA1 and hA3 and human embryonic kidney (HEK) 293 cells stably expressing the hA2AAR in DMEM and F12 (1:1) supplemented with 10% fetal bovine serum, 100 units/mL penicillin, 100 μg/mL streptomycin, and 2 μmol/mL glutamine. 800 μg/mL Geneticin were added to the A2A media and 500 μg/mL hygromycin to the A1 and A3 media. After harvesting the cells, they were homogenized with an electric homogenizer for 10 sec, pipetted them into 1-mL vials, and then stored them at −80° C. until the binding experiments were conducted. The protein concentration was measured with a BCA Protein Assay Kit from Pierce Biotechnology (Rockford, Ill.).
Each tube in the binding assay contained 50 μL of increasing concentrations of the test ligand in Tris-HCl buffer (50 mM, pH 7.5) containing 10 mM MgCl2, 50 μL of the appropriate agonist radioligand, and 100 μL membrane suspension, added sequentially. […] For the A2AAR (20 μg/tube), the radioligand [^3H]CGS21680 was used (−10 nM). […] The mixtures were incubated at 25° C. for 60 min in a shaking water bath. The binding reactions were terminated by filtration through Brandel GF/B filters under a reduced pressure with a M-24 cell harvester (Brandel, Gaithersburg, Md.). Filters were washed three times with 3 mL 50-mM ice-cold Tris-HCl buffer (pH 7.5). […] The filters were counted for A3AR binding with a Packard Cobra II γ-counter (PerkinElmer). The Ki values were determined with GraphPad Prism for all assays.

[1] = Example 7, agonist radioligand [125I]47, read-out: AR Affinity Ki, nM, A3

Compound: CNC(=O)[C@@]12C[C@@H]1[C@@H](n1cnc3c(NCc4cccc(Cl)c4)nc(C#CCCCc4cn(-c5ccc(F)c([N+](=O)[O-])c5)nn4)nc31)[C@H](O)[C@@H]2O [Compound 10, (1S,2R,3S,4R,5S)-4′-(6-(3-Chlorobenzylamino)-2-(6-(1-(4-fluoro-3-nitrophenyl)-1H-1,2,3-triazol-4-yl)pent-1-ynyl)-9H-purin-9-yl)-2′,3′-dihydroxybicyclo[3.1.0]hexane-1′-carboxylic acid N-methylamide]
- % inhibition, A1 (human A1 AR; inhibition of radioligand binding at 10 μM, [3H]36, CHO cells): (10 ± 3%)
- % inhibition, A2A (hA2AAR; inhibition of radioligand binding at 10 μM, [3H]37, HEK293 cells): (39 ± 4%)
- Ki (human A3AR; [125I]38, CHO cells, read-out: Affinity (Ki, nM), A3): 26 ± 8.2 nM

Compound: CNC(=O)[C@@]12C[C@@H]1[C@@H](n1cnc3c(NCc4cccc(I)c4)nc(Cl)nc31)[C@H](O)[C@@H]2O [Compound 127, reference compound]
- Ki (human A1 AR): 136 ± 22 nM
- Ki (hA2AAR): 784 ± 97 nM

Compound: C#CCCCC#Cc1cccc(CNc2nc(Cl)nc3c2ncn3[C@H]2[C@H](O)[C@H](O)[C@]3(C(=O)NC)C[C@H]23)c1 [Compound 200, (1S,2R,3S,4R,5S)-4-[2-Chloro-6-{3-(1,6-heptadiynylbenzylamino)}-9H-purin—9-yl]-2,3-dihydroxybicyclo[3.1.0]hexane-1-carboxylic acid N-methylamide]
- Ki (human A1 AR): 104 ± 24 nM
- Ki (hA2AAR): 4950 ± 960 nM
- Ki (human A3AR; [1]): 8.1 ± 3.1 nM

Compound: C#CCCCCC#Cc1cccc(CNc2nc(Cl)nc3c2ncn3[C@H]2[C@H](O)[C@H](O)[C@]3(C(=O)NC)C[C@H]23)c1 [Compound 201, (1S,2R,3S,4R,5S)-4-[2-Chloro-6-{3-(1,7-octadiynyl)benzylamino}-9H-purin-9-yl]-2,3-dihydroxybicyclo[3.1.0]hexane-1-carboxylic acid N-methylamide]
- Ki (human A1 AR): 1490 ± 230 nM
- inhibition at 10 µM (hA2AAR): 19.7%
- Ki (human A3AR; [1]): 113 ± 24 nM

Compound: C#CCCCCCC#Cc1cccc(CNc2nc(Cl)nc3c2ncn3[C@H]2[C@H](O)[C@H](O)[C@]3(C(=O)NC)C[C@H]23)c1 [Compound 202, (1S,2R,3S,4R,5S)-4-[2-Chloro-6-{3-(1,8-nonadiynyl)}-9H-purin-9-yl]-2,3-dihydroxybicyclo[3.1.0]hexane-1-carboxylic acid N-methylamide]
- inhibition at 10 µM (human A1 AR): 47.7%
- inhibition at 10 µM (hA2AAR): 7%
- Ki (human A3AR; [1]): 87.2 ± 49 nM

Compound: CNC(=O)[C@@]12C[C@@H]1[C@@H](n1cnc3c(NCc4cccc(C#CCCCc5cn(-c6ccc(F)c([N+](=O)[O-])c6)nn5)c4)nc(Cl)nc31)[C@H](O)[C@@H]2O [Compound 203, (1S,2R,3S,4R,5S)-4-(2-Chloro-6-(3-(5-(1-(4-fluoro-3-nitrophenyl)-1H-1,2,3-triazol-4-yl)pent-1-ynyl)benzylamino)-9H-purin-9-yl)-2,3-dihydroxybicyclo[3.1.0]hexane-1-carboxylic acid-N-methylamide]
- Ki (human A1 AR): 37.4 ± 12 nM
- Ki (hA2AAR): 1960 ± 50 nM
- Ki (human A3AR; [1]): 3.2 ± 1.1 nM

Compound: CNC(=O)[C@@]12C[C@@H]1[C@@H](n1cnc3c(NCc4cccc(C#CCCCc5cn(-c6ccc(F)c(N)c6)nn5)c4)nc(Cl)nc31)[C@H](O)[C@@H]2O [Compound 207, (1S,2R,3S,4R,5S)-4-(2-Chloro-6-(3-(5-(1-(4-fluoro-3-amino-phenyl)-1H-1,2,3-triazol-4-yl)pent-1-ynyl)benzylamino)-9H-purin-9-yl)-2,3-dihydroxybicyclo[3.1.0]hexane-1-carboxylic acid-N-methylamide]
- Ki (human A3AR; [1]): 14.3 ± 2.3 nM

Compound: CNC(=O)[C@@]12C[C@@H]1[C@@H](n1cnc3c(NCc4cccc(C#CCCCCCc5cn(-c6ccc(F)c(N)c6)nn5)c4)nc(Cl)nc31)[C@H](O)[C@@H]2O [Compound 208, (1S,2R,3S,4R,5S)-4-(2-Chloro-6-(3-(7-(1-(4-fluoro-3-amino-phenyl)-1H-1,2,3-triazol-4-yl)hept-1-ynyl)benzylamino)-9H-purin-9-yl)-2,3-dihydroxybicyclo[3.1.0]hexane-1-carboxylic acid-N-methylamide]
- Ki (human A3AR; [1]): 47.6 ± 11.3 nM

Compound: C#CCNc1nc(Cl)nc2c1ncn2[C@H]1[C@H](O)[C@H](O)[C@]2(C(=O)NC)C[C@H]12 [Compound 218, (1S,2R,3S,4R,5S)-4-(2-Chloro-6-(prop-2-ynylamino)-9H-purin-9-yl)-2,3-dihydroxy-N-methylbicyclo[3.1.0]hexane-1-carboxamide]
- Ki (human A3AR; [1]): 1.9 nM
